Target: T1, BRM (Homo sapiens, UniProt P51531)
T1 construct: Western Blot Screen of BRM Degradation in SW1573 Cells; endogenous in cells; host or cells: SW1573 cells
Assay: BRM degradation (Dmax and DC50) in SW1573 cells, Western blot screen / In-Cell Western screen
Assay type: cell-based
Settings: overnight (18-20 hours) treatment; for Dmax: read-out: Dmax (%)** (% degraded)
Summary of the method: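 SW1573 cells were treated with compound for 18–20 h (final 0.1% DMSO). BRM was quantified either by Western blot of RIPA lysates or by fixed-cell In-Cell Western (LI-COR, 800/680 nm), each normalised to alpha-tubulin, giving Dmax and DC50.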

T1 sequence (P51531 whole entry): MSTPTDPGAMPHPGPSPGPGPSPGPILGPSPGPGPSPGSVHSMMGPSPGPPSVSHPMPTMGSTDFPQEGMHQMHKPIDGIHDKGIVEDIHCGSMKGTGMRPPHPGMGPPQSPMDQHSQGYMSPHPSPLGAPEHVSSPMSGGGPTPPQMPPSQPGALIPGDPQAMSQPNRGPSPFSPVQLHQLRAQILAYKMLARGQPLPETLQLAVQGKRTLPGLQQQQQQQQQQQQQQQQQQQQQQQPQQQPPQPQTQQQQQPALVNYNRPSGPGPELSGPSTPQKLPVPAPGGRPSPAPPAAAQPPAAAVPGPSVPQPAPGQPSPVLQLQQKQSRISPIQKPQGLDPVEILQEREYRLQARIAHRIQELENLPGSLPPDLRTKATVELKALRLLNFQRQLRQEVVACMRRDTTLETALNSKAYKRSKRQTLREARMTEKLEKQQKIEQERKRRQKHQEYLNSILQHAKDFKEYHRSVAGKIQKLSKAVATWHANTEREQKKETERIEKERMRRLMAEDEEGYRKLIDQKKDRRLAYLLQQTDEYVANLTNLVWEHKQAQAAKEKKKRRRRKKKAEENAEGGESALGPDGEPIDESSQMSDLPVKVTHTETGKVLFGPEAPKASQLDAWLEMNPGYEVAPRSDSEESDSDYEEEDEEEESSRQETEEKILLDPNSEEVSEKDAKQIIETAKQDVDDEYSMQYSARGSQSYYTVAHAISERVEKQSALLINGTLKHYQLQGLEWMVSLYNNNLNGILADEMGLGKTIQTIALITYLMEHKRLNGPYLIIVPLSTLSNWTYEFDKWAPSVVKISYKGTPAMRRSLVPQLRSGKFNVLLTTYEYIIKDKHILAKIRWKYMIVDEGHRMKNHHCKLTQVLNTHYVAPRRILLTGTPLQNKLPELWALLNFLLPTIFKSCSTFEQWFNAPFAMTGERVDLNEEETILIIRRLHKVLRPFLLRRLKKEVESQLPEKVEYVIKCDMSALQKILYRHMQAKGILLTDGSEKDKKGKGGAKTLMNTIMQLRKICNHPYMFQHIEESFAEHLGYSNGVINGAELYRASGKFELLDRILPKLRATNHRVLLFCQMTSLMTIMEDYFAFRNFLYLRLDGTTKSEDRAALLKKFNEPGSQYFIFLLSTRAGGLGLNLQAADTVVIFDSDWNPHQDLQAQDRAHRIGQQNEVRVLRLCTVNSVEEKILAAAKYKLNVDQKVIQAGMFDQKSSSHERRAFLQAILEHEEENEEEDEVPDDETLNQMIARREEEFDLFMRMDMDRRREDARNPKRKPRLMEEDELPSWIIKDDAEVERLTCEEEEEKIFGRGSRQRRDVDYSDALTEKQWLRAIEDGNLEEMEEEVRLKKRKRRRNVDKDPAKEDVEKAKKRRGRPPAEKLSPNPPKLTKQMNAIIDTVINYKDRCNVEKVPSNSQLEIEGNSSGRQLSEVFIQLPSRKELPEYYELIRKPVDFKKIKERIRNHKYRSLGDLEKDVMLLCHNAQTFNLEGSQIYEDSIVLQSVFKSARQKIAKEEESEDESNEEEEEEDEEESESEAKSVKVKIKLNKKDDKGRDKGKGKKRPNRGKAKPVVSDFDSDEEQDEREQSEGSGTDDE

Compound `Cc1ncsc1-c1ccc([C@H](C)NC(=O)[C@@H]2C[C@@H](O)CN2C(=O)[C@@H](c2cc(O[C@H]3C[C@H](CN4CCC(O[C@H]5C[C@H](N6CCOC7(CCN(c8cc(-c9ccccc9O)nnc8N)CC7)C6)C5)CC4)C3)no2)C(C)C)cc1` [Compound 68, (2S,4R)-4-hydroxy-N-[(1S)-1-[4-(4-methyl-1,3-thiazol-5-yl)phenyl]ethyl]-1-[(2R)-3-methyl-2-{3-[(1r,3r)-3-({4-[(1r,3r)-3-{9-[3-amino-6-(2-hydroxyphenyl)pyridazin-4-yl]-1-oxa-4,9-diazaspiro[5.5]undecan-4-yl}cyclobutoxy]piperidin-1-yl}methyl)cyclobutoxy]-1,2-oxazol-5-yl}butanoyl]pyrrolidine-2-carboxamide] has a DC50 of less than 2.5 nM and a Dmax greater than 75%.
`CC(C)[C@@H](C(=O)N1C[C@H](O)C[C@H]1C(=O)N[C@@H](C)c1ccc(-c2ccnn2C)cc1)c1cc(N2CCC(CN3CCC(O[C@H]4C[C@H](OC(=O)N5CCN(c6cc(-c7ccccc7O)nnc6N)CC5)C4)CC3)CC2)no1` [Compound 115, (1r,3r)-3-({1-[(1-{5-[(2R)-1-[(2S,4R)-4-hydroxy-2-{[(1S)-1-[4-(1-methyl-1H-pyrazol-5-yl)phenyl]ethyl]carbamoyl}pyrrolidin-1-yl]-3-methyl-1-oxobutan-2-yl]-1,2-oxazol-3-yl}piperidin-4-yl)methyl]piperidin-4-yl}oxy)cyclobutyl 4-[3-amino-6-(2-hydroxyphenyl)pyridazin-4-yl]piperazine-1-carboxylate] gave a DC50 of no less than 30 nM.
With `Cc1ncsc1-c1ccc([C@H](C)NC(=O)[C@@H]2C[C@@H](O)CN2C(=O)[C@@H](c2cc(N3CCC(CN4CC[C@H](OC(=O)N5CCN(c6cc(-c7ccccc7O)nnc6N)CC5)[C@H](F)C4)CC3)no2)C(C)C)cc1` [Compound 103, (3R,4S)-3-fluoro-1-[(1-{5-[(2R)-1-[(2S,4R)-4-hydroxy-2-{[(1S)-1-[4-(4-methyl-1,3-thiazol-5-yl)phenyl]ethyl]carbamoyl}pyrrolidin-1-yl]-3-methyl-1-oxobutan-2-yl]-1,2-oxazol-3-yl}piperidin-4-yl)methyl]piperidin-4-yl 4-[3-amino-6-(2-hydroxyphenyl)pyridazin-4-yl]piperazine-1-carboxylate] the DC50 was less than 2.5 nM and the Dmax was greater than 75%.
In the case of `CC(C)[C@H](C(=O)N1C[C@H](O)C[C@H]1C(=O)N[C@@H](C)c1ccc(C#N)cc1)c1cc(N2CCC(OCCN3CCC(O[C@H]4C[C@H](Oc5cc(N6C7CCC6CN(c6cc(-c8ccccc8O)nnc6N)C7)ccn5)C4)CC3)CC2)no1` [Compound 152, (2S,4R)-N-[(1S)-1-(4-cyanophenyl)ethyl]-4-hydroxy-1-[(2S)-3-methyl-2-{3-[4-(2-{4-[(1r,3r)-3-[(4-{3-[3-amino-6-(2-hydroxyphenyl)pyridazin-4-yl]-3,8-diazabicyclo[3.2.1]octan-8-yl}pyridin-2-yl)oxy]cyclobutoxy]piperidin-1-yl}ethoxy)piperidin-1-yl]-1,2-oxazol-5-yl}butanoyl]pyrrolidine-2-carboxamide], the DC50 is reported as no less than 30 nM.
Work on `Cc1ncsc1-c1ccc([C@H](C)NC(=O)[C@@H]2C[C@@H](O)CN2C(=O)[C@@H](c2cc(N3CCC(CN4CCC(O[C@H]5C[C@H](N6CCC([C@@H](C)n7cc(-c8cc(-c9ccccc9O)nnc8N)cn7)CC6)C5)CC4)CC3)no2)C(C)C)cc1` (single isomer, unassigned) [Compound 7] yielded a DC50 of less than 2.5 nM and a Dmax greater than 75%.
`CC(C)[C@H](C(=O)N1C[C@H](O)C[C@H]1C(=O)N[C@@H](C)c1ccc(-c2ccnn2C)cc1)c1cc(N2CCC(CN3CCC(CN4CCC5(CC4)CC(Oc4cc(N6C7CCC6CN(c6cc(-c8ccccc8O)nnc6N)C7)ccn4)C5)CC3)CC2)no1` [Compound 33, (2S,4R)-1-[(2S)-2-[3-(4-{[4-({2-[(4-{3-[3-amino-6-(2-hydroxyphenyl)pyridazin-4-yl]-3,8-diazabicyclo[3.2.1]octan-8-yl}pyridin-2-yl)oxy]-7-azaspiro[3.5]nonan-7-yl}methyl)piperidin-1-yl]methyl}piperidin-1-yl)-1,2-oxazol-5-yl]-3-methylbutanoyl]-4-hydroxy-N-[(1S)-1-[4-(1-methyl-1H-pyrazol-5-yl)phenyl]ethyl]pyrrolidine-2-carboxamide] gave a DC50 of 10 to 30 nM and a Dmax greater than 75%.

— patent publication US20250059198A1, “BRM DEGRADING COMPOUNDS AND ASSOCIATED METHODS OF USE” (Arvinas Operations, Inc., priority 2021, published 2025)
